Experimental data reported in patent US20160220569A1, “CDK4/6 Inhibitor Dosage Formulations For The Protection Of Hematopoietic Stem And Progenitor Cells During Chemotherapy” (G1 Therapeutics, Inc., priority 2015, published 2016).
Like-named read-outs stand apart in the source and are kept apart here.

Experiment: 14-day oral gavage toxicokinetic study in rats
Assay type: in vivo
Details: male, rat, plasma, po; for concentration at 8 h / concentration at 12 h / concentration at 24 h / concentration at […] / concentration at 0.5 h / concentration at 1 h / concentration at 2 h / concentration at 4 h: rats; for half-life: read-out: t½ (converted)
Description: Plasma was obtained from blood samples collected from rats in a composite sampling scheme, with 3 samples collected per sex, per dose, at each target collection time, as illustrated in Table 21 to Table 25. Samples were collected from the vehicle control group on Day 1 and Day 14 at 3 hour after administration. […] Blood samples were collected in tubes containing K3EDTA as an anticoagulant and placed on ice until processed to plasma via centrifugation. Samples were stored frozen at −80° C. until shipment to the bioanalytical laboratory for analysis.
The following parameters were determined:
Cmax: Maximum observed plasma concentration (ng/mL).
A value of 0 ng/mL was assigned to all values below the lower limit of quantitation (BLQ, <10.0 ng/mL).
AUC(0-inf): Area under the plasma concentration vs. time curve extrapolated from 0 to infinity (ng*h/mL), calculated as AUC(0-t)+AUC(t-inf) where AUC(t-inf) is calculated as last measurable concentration (CLast) divided by ke, where ke is the elimination rate constant determined by linear regression of the last three analytically measured points on the log plasma concentration vs. time curve. The selection criteria of the data points for inclusion in the calculation of ke required that at least three data points representing the terminal phase (after Tmax) were regressed and that R2≧0.850 when rounded.
CL: Clearance (L/h/kg), calculated as the dose divided by AUC(0-t).
Vd: Volume of distribution (L/kg), calculated as dose divided by the product of ke and AUC(0-inf).
Vdss: Steady state volume of distribution (L/kg), calculated as clearance […] mean residence time, where mean residence time is calculated as the area under the first moment curve divided by AUC(0-t).
t½: Elimination half-life (h), calculated as ln(2)/ke, where ke is the elimination rate constant determined by linear regression. Half-life was defined as not determined if regression criteria (specified in AUC(0-inf) above) were not met.
Cmax/Dose: Normalized Cmax, calculated as Cmax divided by total dose.
AUC/Dose: Normalized AUC, calculated as AUC(0-t) divided by total dose.
ii. Statistical Analysis Mean and standard deviation (SD) were calculated in Watson. Values of BLQ were assigned a value of 0 ng/mL for mean calculations. Concentration values and derived TK parameters were reported to three significant figures.

[1] = 15 mg/kg, oral 15 mg/kg, Study Day 1, Male
[2] = 15 mg/kg, oral 15 mg/kg, Study Day 14, Male
[3] = 30 mg/kg, oral 30 mg/kg, Study Day 1, Male

`CN1CCN(c2ccc(Nc3ncc4cc5n(c4n3)C3(CCCCC3)CNC5=O)nc2)CC1` [Compound 1, 2′-((5-(4-methylpiperazin-1-yl)pyridin-2-yl)amino)-7′,8′-dihydro-6′H-spiro[cyclohexane-1,9′-pyrazino[1′,2′:1,5]pyrrolo[2,3-d]pyrimidin]-6′-one] showed a concentration at 8 h (15 mg/kg, Mean Compound 1 Plasma Concentration, oral 15 mg/kg, Day 1, 8 h, Male) of 1020 ng/mL, a concentration at 12 h (15 mg/kg, Mean Compound 1 Plasma Concentration, oral 15 mg/kg, Day 1, 12 h, Male) of 618 ng/mL and a concentration at 24 h (15 mg/kg, Mean Compound 1 Plasma Concentration, oral 15 mg/kg, Day 1, 24 h, Male) of 84.5 ng/mL. The concentration at […] (15 mg/kg, Mean Compound 1 Plasma Concentration, oral 15 mg/kg, Day 1, […], Male) was 35.6 ng/mL, the concentration at 0.5 h (15 mg/kg, Mean Compound 1 Plasma Concentration, oral 15 mg/kg, Day 14, 0.5 h, Male) was 740 ng/mL and the concentration at 1 h (15 mg/kg, Mean Compound 1 Plasma Concentration, oral 15 mg/kg, Day 14, 1 h, Male) was 842 ng/mL. It also gave a concentration at 2 h (15 mg/kg, Mean Compound 1 Plasma Concentration, oral 15 mg/kg, Day 14, 2 h, Male) of 1320 ng/mL, a concentration at 4 h (15 mg/kg, Mean Compound 1 Plasma Concentration, oral 15 mg/kg, Day 14, 4 h, Male) of 1080 ng/mL and a concentration at 8 h (15 mg/kg, Mean Compound 1 Plasma Concentration, oral 15 mg/kg, Day 14, 8 h, Male) of 1170 ng/mL. The concentration at 12 h (15 mg/kg, Mean Compound 1 Plasma Concentration, oral 15 mg/kg, Day 14, 12 h, Male) was 626 ng/mL, the concentration at 24 h (15 mg/kg, Mean Compound 1 Plasma Concentration, oral 15 mg/kg, Day 14, 24 h, Male) was 60.6 ng/mL and the concentration at […] (15 mg/kg, Mean Compound 1 Plasma Concentration, oral 15 mg/kg, Day 14, […], Male) was 107 ng/mL. It also gave an AUC(0-inf) [1] of 16000 ng·h/mL, an AUC(0-t) [1] of 15500 ng·h/mL and a Cmax [1] of 1160 ng/mL. For the same molecule, the Tmax [1] was 4 h, the half-life [1] was 4.39 h and the AUC(0-t) [2] was 16300 ng·h/mL. It also gave a Cmax [2] of 1320 ng/mL, a Tmax [2] of 2 h and a half-life [2] of 3.7 h. For the same molecule, the concentration at 0.5 h (30 mg/kg, Individual Compound 1 Plasma Concentration, daily oral 30 mg/kg, Day 1, Male, 0.5 h) was 1450 ng/mL, the concentration at 1 h (30 mg/kg, Individual Compound 1 Plasma Concentration, daily oral 30 mg/kg, Day 1, Male, 1 h) was 1620 ng/mL and the concentration at 2 h (30 mg/kg, Individual Compound 1 Plasma Concentration, daily oral 30 mg/kg, Day 1, Male, 2 h) was 1810 ng/mL. It also gave a concentration at 4 h (30 mg/kg, Individual Compound 1 Plasma Concentration, daily oral 30 mg/kg, Day 1, Male, 4 h) of 2660 ng/mL, a concentration at 8 h (30 mg/kg, Individual Compound 1 Plasma Concentration, daily oral 30 mg/kg, Day 1, Male, 8 h) of 2000 ng/mL and a concentration at 12 h (30 mg/kg, Individual Compound 1 Plasma Concentration, daily oral 30 mg/kg, Day 1, Male, 12 h) of 1930 ng/mL. It also gave a concentration at 24 h (30 mg/kg, Individual Compound 1 Plasma Concentration, daily oral 30 mg/kg, Day 1, Male, 24 h) of 280 ng/mL, a concentration at 0.5 h (30 mg/kg, Individual Compound 1 Plasma Concentration, daily oral 30 mg/kg, Day 14, Male, 0.5 h) of 977 ng/mL and a concentration at 2 h (30 mg/kg, Individual Compound 1 Plasma Concentration, daily oral 30 mg/kg, Day 14, Male, 2 h) of 1630 ng/mL. The concentration at 4 h (30 mg/kg, Individual Compound 1 Plasma Concentration, daily oral 30 mg/kg, Day 14, Male, 4 h) was 2080 ng/mL, the concentration at 8 h (30 mg/kg, Individual Compound 1 Plasma Concentration, daily oral 30 mg/kg, Day 14, Male, 8 h) was 1750 ng/mL and the concentration at 12 h (30 mg/kg, Individual Compound 1 Plasma Concentration, daily oral 30 mg/kg, Day 14, Male, 12 h) was 1230 ng/mL. The concentration at 24 h (30 mg/kg, Individual Compound 1 Plasma Concentration, daily oral 30 mg/kg, Day 14, Male, 24 h) was 208 ng/mL, the concentration at […] (30 mg/kg, Individual Compound 1 Plasma Concentration, daily oral 30 mg/kg, Day 14, Male, […]) was 197 ng/mL and the concentration at 0.5 h (30 mg/kg, Mean Compound 1 Plasma Concentration, oral 30 mg/kg, Day 1, 0.5 h, Male) was 1420 ng/mL. It also gave a concentration at 1 h (30 mg/kg, Mean Compound 1 Plasma Concentration, oral 30 mg/kg, Day 1, 1 h, Male) of 1400 ng/mL, a concentration at 2 h (30 mg/kg, Mean Compound 1 Plasma Concentration, oral 30 mg/kg, Day 1, 2 h, Male) of 1620 ng/mL and a concentration at 4 h (30 mg/kg, Mean Compound 1 Plasma Concentration, oral 30 mg/kg, Day 1, 4 h, Male) of 2240 ng/mL. It also gave a concentration at 8 h (30 mg/kg, Mean Compound 1 Plasma Concentration, oral 30 mg/kg, Day 1, 8 h, Male) of 1860 ng/mL, a concentration at 24 h (30 mg/kg, Mean Compound 1 Plasma Concentration, oral 30 mg/kg, Day 1, 24 h, Male) of 234 ng/mL and a concentration at […] (30 mg/kg, Mean Compound 1 Plasma Concentration, oral 30 mg/kg, Day 1, […], Male) of 208 ng/mL. The concentration at 0.5 h (30 mg/kg, Mean Compound 1 Plasma Concentration, oral 30 mg/kg, Day 14, 0.5 h, Male) was 993 ng/mL, the concentration at 1 h (30 mg/kg, Mean Compound 1 Plasma Concentration, oral 30 mg/kg, Day 14, 1 h, Male) was 1530 ng/mL and the concentration at 2 h (30 mg/kg, Mean Compound 1 Plasma Concentration, oral 30 mg/kg, Day 14, 2 h, Male) was 1590 ng/mL. It also gave a concentration at 4 h (30 mg/kg, Mean Compound 1 Plasma Concentration, oral 30 mg/kg, Day 14, 4 h, Male) of 2030 ng/mL, a concentration at 8 h (30 mg/kg, Mean Compound 1 Plasma Concentration, oral 30 mg/kg, Day 14, 8 h, Male) of 1880 ng/mL and a concentration at 12 h (30 mg/kg, Mean Compound 1 Plasma Concentration, oral 30 mg/kg, Day 14, 12 h, Male) of 1300 ng/mL. For the same molecule, the concentration at […] (30 mg/kg, Mean Compound 1 Plasma Concentration, oral 30 mg/kg, Day 14, […], Male) was 207 ng/mL, the AUC(0-inf) [3] was 34700 ng·h/mL and the AUC(0-t) [3] was 33000 ng·h/mL. For the same molecule, the Cmax [3] was 2240 ng/mL, the Tmax [3] was 4 h and the half-life [3] was 5.05 h. The AUC(0-inf) (30 mg/kg, oral 30 mg/kg, Study Day 14, Male) was 30700 ng·h/mL.
